In the supplement of paper PMC11551840:

How the values were obtained:
Experiment in all cases: IC50 (cell viability, 72 h) (ln(µM))
ORL-214 = tested on: ORL-214
Experimental: (§1)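 Discovery screen of OSCC cell lines in 1,536-well plates. Cells were treated 24 h after seeding with 7 concentrations spanning a 1,000-fold half-log range for 72 h, and viability was read by CellTiter-Glo 2.0 and normalised to DMSO (1) and medium-only (0) controls. IC50 comes from a two-parameter logistic nonlinear mixed-effects fit and is reported as natural log of IC50 in µM.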

ORL-136 = tested on: ORL-136
Experimental: as §1

SCC-9 = tested on: SCC-9
Experimental: as §1

SAS = tested on: SAS
Experimental: as §1

HO-1-u-1 = tested on: HO-1-u-1
Experimental: as §1

ORL-166 = tested on: ORL-166
Experimental: as §1

ORL-215 = tested on: ORL-215
Experimental: as §1

HSC-4 = tested on: HSC-4
Experimental: as §1

ORL-150 = tested on: ORL-150
Experimental: as §1

BICR10 = tested on: BICR10
Experimental: as §1

ORL-153 = tested on: ORL-153
Experimental: as §1

ORL-156 = tested on: ORL-156
Experimental: as §1

ORL-48 = tested on: ORL-48
Experimental: as §1

ORL-195 = tested on: ORL-195
Experimental: as §1

HSC-2 = tested on: HSC-2
Experimental: as §1

ORL-207 = tested on: ORL-207
Experimental: as §1

ORL-115 = tested on: ORL-115
Experimental: as §1

ORL-204 = tested on: ORL-204
Experimental: as §1

ORL-174 = tested on: ORL-174
Experimental: as §1

ORL-188 = tested on: ORL-188
Experimental: as §1

PE-CA-PJ15 = tested on: PE-CA-PJ15
Experimental: as §1

Compound	IC50 (ln) (ORL-214)	IC50 (ln) (ORL-136)	IC50 (ln) (SCC-9)	IC50 (ln) (SAS)	IC50 (ln) (HO-1-u-1)	IC50 (ln) (ORL-166)	IC50 (ln) (ORL-215)	IC50 (ln) (HSC-4)	IC50 (ln) (ORL-150)	IC50 (ln) (BICR10)	IC50 (ln) (ORL-153)	IC50 (ln) (ORL-156)	IC50 (ln) (ORL-48)	IC50 (ln) (ORL-195)	IC50 (ln) (HSC-2)	IC50 (ln) (ORL-207)	IC50 (ln) (ORL-115)	IC50 (ln) (ORL-204)	IC50 (ln) (ORL-174)	IC50 (ln) (ORL-188)	IC50 (ln) (PE-CA-PJ15)
Cc1cc(-c2nc(-c3ccc(OC(F)(F)F)cc3)no2)nn1Cc1ccnc(N2CCN(C3CC3)CC2)c1 [BAY-87-2243]	-0.338	-0.901	-3.5	-3.51	-1.24	-2.29	-2.31	-5.92	-2.36	-1.01	-0.683	-0.734	-1.95	-1.57	-1.04	-2.38	-5.09	-2.77	-0.785	-0.131	-1.76
CC[C@@H]1C(=O)N(C)c2cnc(Nc3ccc(C(=O)NC4CCN(C)CC4)cc3OC)nc2N1C1CCCC1 [BI-2536]	-2.28	1.66	0.0591	-1.93	-2.33	-3.02	-3.45	-1.33	-3.5	-2.78	-2.08	-2.91	-1.8	-2.26	-2.87	-2.92	-2.1	-0.226	-2.58	-2.94	-0.628
CC(C)C[C@H](NC(=O)[C@H](Cc1ccccc1)NC(=O)c1cnccn1)B(O)O [Bortezomib]	-5.37	-4.79	-4.18	-5.88	-5.69	-5.43	-5.32	-4.5	-4.88	-4.95	-4.84	-4.46	-4.47	-5.04	-5.55	-5.3	-4.36	-4.52	-5.44	-5.03	-4.28
CC[C@@]1(O)C(=O)OCc2c1cc1n(c2=O)Cc2cc3ccccc3nc2-1 [Camptothecin]	-4.76	-1.37	1.24	-4.38	-0.864	-3.18	-2.87	-3.06	-3.04	-1.45	-3.34	-2.15	-2.57	-2.2	-4	-4.09	-1.73	-3.82	-2.91	-3.95	-2.24
Cc1c2oc3c(C)ccc(C(=O)N[C@@H]4C(=O)N[C@H](C(C)C)C(=O)N5CCC[C@H]5C(=O)N(C)CC(=O)N(C)[C@@H](C(C)C)C(=O)O[C@@H]4C)c3nc-2c(C(=O)N[C@@H]2C(=O)N[C@H](C(C)C)C(=O)N3CCC[C@H]3C(=O)N(C)CC(=O)N(C)[C@@H](C(C)C)C(=O)O[C@@H]2C)c(N)c1=O [Dactinomycin]	-5.57	-4.38	-2.9	-4.65	-5.18	-6.04	-4.6	-3.96	-5.32	-3.88	-6.27	-5.7	-5.43	-5.67	-5.7	-5.32	-4.09	-4.99	-5.84	-5.69	-4.55
CCc1cnn2c(NCc3ccc[n+]([O-])c3)cc(N3CCCC[C@H]3CCO)nc12 [Dinaciclib]	-4.09	-2.65	-1.35	-4.47	-3.83	-4.64	-4.15	-3.41	-3.93	-2.5	-3.5	-4.06	-3.44	-3.57	-4.36	-3.83	-4.03	-3.8	-4.02	-4.08	-3.29
CC(=O)O[C@@]12CO[C@@H]1C[C@H](O)[C@@]1(C)C(=O)[C@H](O)C3=C(C)[C@@H](OC(=O)[C@H](O)[C@@H](NC(=O)OC(C)(C)C)c4ccccc4)C[C@@](O)([C@@H](OC(=O)c4ccccc4)[C@H]21)C3(C)C [Docetaxel]	-6.46	-2.74	-3.63	-3.91	-4.77	-5.53	-6.3	-4.06	-6.63	-5.07	-5.35	-4.72	-6.36	-5.11	-6.54	-6.77	-4.57	-5.44	-6.19	-7	-3.61
CCNC(=O)c1noc(-c2cc(C(C)C)c(O)cc2O)c1-c1ccc(CN2CCOCC2)cc1 [Luminespib]	-4.45	-3.13	-2.72	-3.87	-4.16	-2.05	-3.76	-2.55	-3.97	-3.95	-3.79	-3.29	-4.29	-4.03	-4.34	-4.84	-1.26	-2.64	-4.47	-4.38	-2.87
CC(C)C[C@@H](C=O)NC(=O)[C@H](CC(C)C)NC(=O)[C@H](CC(C)C)NC(=O)OCc1ccccc1 [MG-132]	-1.68	-1.24	-0.805	-1.28	-1.98	-1.11	-1.39	-0.832	-0.689	-0.312	-1.31	-0.951	-1.04	-1.32	-1.34	-1.48	-0.897	-1.04	-1.61	-1.21	-0.875
COc1ncc(-c2ccc3nccc(-c4ccnnc4)c3c2)cc1NS(=O)(=O)c1ccc(F)cc1F [Omipalisib]	-3.91	-2.66	-1.11	-1.24	-3.13	-2.96	-2.45	-0.985	-4.18	-2.02	–	-3.31	-3.43	-3.16	-4.69	-3.51	-1.58	-2.59	-3.91	-3.88	-1.36
CC(=O)O[C@H]1C(=O)[C@@]2(C)[C@H]([C@H](OC(=O)c3ccccc3)[C@]3(O)C[C@H](OC(=O)[C@H](O)[C@@H](NC(=O)c4ccccc4)c4ccccc4)C(C)=C1C3(C)C)[C@]1(OC(C)=O)CO[C@@H]1C[C@@H]2O [Paclitaxel]	-5.78	-2.48	-3.62	-3.47	-3.72	-5.21	-5.5	-2.73	-6.11	-4.85	-4.87	-4.99	-5.51	-4.66	-5.85	-5.88	-4.44	-4.96	-5.25	-6.34	-2.85
